Assays:
[1] = for molar entropy: 101.33 kPa, Small (less than 1 g) adiabatic calorimetry
[2] = Molar enthalpy of transition or fusion

N.NS(=O)(=O)O [ammonium sulfamate]
[1]
Settings	molar entropy [J/K/mol]
5 K, Crystal 2	0.0002827
10 K, Crystal 2	0.07483
15 K, Crystal 2	0.4656
20 K, Crystal 2	1.33
25 K, Crystal 2	2.661
30 K, Crystal 2	4.49
35 K, Crystal 2	6.735
40 K, Crystal 2	9.229
45 K, Crystal 2	12.14
50 K, Crystal 2	15.13
55 K, Crystal 2	18.29
60 K, Crystal 2	21.53
65 K, Crystal 2	24.86
70 K, Crystal 2	28.35
75 K, Crystal 2	31.84
80 K, Crystal 2	35.42
90 K, Crystal 2	42.65
100 K, Crystal 2	49.97
110 K, Crystal 2	57.29
120 K, Crystal 2	64.6
130 K, Crystal 2	71.75
140 K, Crystal 2	78.82
150 K, Crystal 2	85.64
160 K, Crystal 2	92.29
170 K, Crystal 2	98.94
180 K, Crystal 2	105.59
190 K, Crystal 2	112.25
200 K, Crystal 2	118.07
210 K, Crystal 2	123.89
220 K, Crystal 2	130.54
230 K, Crystal 2	136.36
240 K, Crystal 2	141.35
260 K, Crystal 1	152.99
270 K, Crystal 1	157.97
280 K, Crystal 1	163.79
290 K, Crystal 1	168.78
298.15 K, Crystal 1	172.94
300 K, Crystal 1	173.77
310 K, Crystal 1	178.76
320 K, Crystal 1	183.75
330 K, Crystal 1	188.74

Settings	Molar enthalpy of transition or fusion, Crystal 1, DSC [kcal/mol]	Molar enthalpy of transition or fusion, Crystal 2, Adiabatic calorimetry [kcal/mol]	Normal melting temperature, Crystal 1, DTA [°C]	Triple point temperature, Crystal 2, Adiabatic calorimetry [K]
[1]	–	–	133.0	254.5
[2]	3.87	0.00287	–	–

— the NIST ThermoML archive (doi:10.1016/j.jct.2019.01.021)
